Test results from patent US20130274342A1, “COMPOSITIONS AND METHODS FOR TREATING COUGH” (Cerecor, Inc., priority 2012, published 2013).

Tests used:
[1] = absorption limited to the distal small bowel; cited from earlier work
[2] = cited from earlier work
Caco-2 cells = assay: Memantine in vitro intestinal permeability (Caco-2 cells); format: in vitro ADME
[3] = system: citric acid-induced cough; assay: Citric acid-induced cough in guinea pigs, oral memantine vs vehicle; format: in vivo; settings: oral administration, dose response (FIG. 2)
[4] = Stability of memantine in alkaline conditions, solution and lozenge (Example 5); format: physicochemical
Experimental: The stability of memantine is studied within a pH range in both solution and in a lozenge dosage form. It is determined that when memantine is included in a buffer solution at a pH 8.0 or higher, memantine degrades and/or precipitates out of solution. It is determined that in a solution with a pH of 8.0, only about 85.3 percent of memantine is recovered; in a solution with a pH of 9.0, only about 29.8 percent of memantine is recovered; and in a solution with a pH of 10.0, only about 0.7 percent of memantine is recovered. In a solution with a pH of 1.0, it is determined that 97.6 percent of memantine is recovered and thus memantine is determined to be stable. It is also determined that memantine is unstable in a lozenge dosage form when it is in contact with an alkalinizing agent. It is determined that when memantine and sodium hydroxide are added together in a lozenge dosage form, only about 40% to about 60% memantine is recovered, with the remaining memantine degrading and/or precipitating out during the lozenge preparation process. It is determined that when memantine and sodium carbonate are added together in a lozenge dosage form, only about 40% to about 60% memantine is recovered, with the remaining memantine degrading and/or precipitating out during the lozenge preparation process.

[5] = Memantine ex vivo buccal permeability (porcine buccal mucosa); format: in vitro ADME
[6] = Pharmacokinetic evaluation of memantine with sodium hydroxide, menthol and optionally NH4Cl in male beagle dogs (Example 2); format: in vivo; settings: 0.4 mg/kg, Route Oral
Experimental: The pharmacokinetics of memantine were evaluated after buccal administration in male beagle dogs. Memantine was formulated in water, 3.3 mg/mL sodium hydroxide in water, or 7.5 mg/mL sodium carbonate in water. All dogs received a 0.4 mg/kg dose of memantine. Plasma levels of memantine were determined by LC-MS/MS. Pharmacokinetic parameters were determined for the memantine plasma data.
For dosing, dogs were anesthetized with an IV injection of ketamine/diazepam, and maintained by isoflurane intubation during the buccal administration. The dosing solution was pipetted into a circular cylinder to concentrate the dosing solution on one area of the mucosa. At just prior to the 15 minute sample time point, the oral cavity was rinsed with 5 mL of water and dried with gauze. Immediately after the rinse, the 15 minute sample was collected.
The pharmacokinetics of memantine were evaluated after buccal administration in male beagle dogs using procedures similar to those used in Example 1, except that menthol or menthol and ammonium chloride where co-administered with the sodium hydroxide (Table 2). Table 2 provides a summary of pharmacokinetic findings, comparing memantine compositions containing an alkalinizing agent to increase local pH and a permeation enhancer (menthol), and optionally a urinary acidifying agent. […] Further addition of a urinary acidifying agent (e.g., NH4Cl) further reduces T1/2, indicating more rapid elimination of memantine.

Molecule | time to maximum plasma concentration (Tmax) [1] [h] | dissociation constant (pKa) [2] | permeability of memantine in Caco-2 cells (Caco-2 cells; increase in pH from pH 5.0 to 10.5 (FIG. 3)) | efficacy on citric acid-induced cough relative to vehicle control [3] | memantine recovered ([4]; solution with a pH of 1.0) [%] | memantine recovered ([4]; solution with a pH of 8.0) | memantine recovered ([4]; solution with a pH of 9.0) | memantine recovered ([4]; solution with a pH of 10.0) | increase in permeability of memantine in porcine buccal mucosa ([5]; increase in pH from 5.5 to 9.0 (FIG. 4)) | increase in permeability of memantine in porcine buccal mucosa ([5]; increase in pH from 8.0 to 9.0 (FIG. 5)) | AUC0-∞ ([6]; 3.3 mg/ml sodium hydroxide + 5 mg/ml menthol) [ng·h/mL] | Cmax/Dose ([6]; 3.3 mg/ml sodium hydroxide + 5 mg/ml menthol + 20 mg/kg NH4Cl) | AUC0-t ([6]; Control) [ng·h/mL] | effect as permeation enhancer on memantine Caco-2 permeability (Caco-2 cells; FIG. 6)
CC12CC3CC(C)(C1)CC(N)(C3)C2 [memantine, 3,5-dimethyl-1-adamantanamine] | 4 to 7 | ~10 | gradually increases | dose-dependent antitussive effects | 97.6 | about 85.3% | about 29.8% | about 0.7% | over 100 fold | about 3.8 fold | 126 | 26.03 | 120 | 
polysorbate 80 |  |  |  |  |  |  |  |  |  |  |  |  |  | ineffective
